Results on nine molecules are retold here after PubChem BioAssay AID1259407 (Chemical Carcinogenesis Research Information System (CCRIS), 2018).

Calls of active or inactive are those of the source. The rule behind the calls is not given here.

The test system of the series is CCRIS mutagenicity, Ames/micronucleus/aberration tests. In words: CCRIS mutagenicity studies.
Setting [1] is: Test System: AMES SALMONELLA TYPHIMURIUM, Strain/Indicator: TA98, Metabolic Activation: NONE, Method: PREINCUBATION
The mark [2] stands for this setting: Test System: AMES SALMONELLA TYPHIMURIUM, Strain/Indicator: TA100, Metabolic Activation: NONE, Method: PREINCUBATION
The mark [3] stands for this setting: Test System: AMES SALMONELLA TYPHIMURIUM, Strain/Indicator: TA1537, Metabolic Activation: NONE, Method: STANDARD PLATE.

In the case of `Cc1c(N)nc(C(CC(N)=O)NCC(N)C(N)=O)nc1C(=O)NC(C(=O)NC(C)C(O)C(C)C(=O)NC(C(=O)NCCc1nc(-c2nc(C(=O)NCCC[S+](C)C)cs2)cs1)C(C)O)C(O[C@@H]1O[C@@H](CO)[C@@H](O)[C@H](O)[C@@H]1O[C@H]1O[C@H](CO)[C@@H](O)[C@H](OC(N)=O)[C@@H]1O)c1cnc[nH]1` (stereo partly drawn), the mutagenic call (End Point: IN VITRO MICRONUCLEUS, Test System: CHO CELLS, Metabolic Activation: RAT, LIVER, S-9, AROCLOR 1254) was “active; positive”; the mutagenic call (End Point: In vitro micronucleus, Test System: Human lymphocytes from 200 volunteers (128 women, 72 men), Metabolic Activation: None) is “inactive; positive for gstt1-null and xd polymorphisms and spontaneous and bleomycin-induc”; the mutagenic call under setting [1] was “inactive; negative”; the mutagenic call (Test System: AMES SALMONELLA TYPHIMURIUM, Strain/Indicator: TA98, Metabolic Activation: S-9, Method: PREINCUBATION) is “inactive; negative”; the mutagenic call under setting [2] was “inactive; negative”; the mutagenic call (Test System: AMES SALMONELLA TYPHIMURIUM, Strain/Indicator: TA100, Metabolic Activation: S-9, Method: PREINCUBATION) is “inactive; negative”. Moreover, the mutagenic call is “active; positive” (Test System: AMES SALMONELLA TYPHIMURIUM, Strain/Indicator: TA102, Metabolic Activation: NONE, Method: STANDARD PLATE) and “inactive; negative” (Test System: AMES SALMONELLA TYPHIMURIUM, Strain/Indicator: TA2638A, Metabolic Activation: NONE, Method: STANDARD PLATE).
In the case of `c1ccc2[nH]ccc2c1`, the mutagenic call runs as follows: (Test System: AMES SALMONELLA TYPHIMURIUM, Strain/Indicator: TA97, Metabolic Activation: NONE, Method: PREINCUBATION) “inactive; negative”; (Test System: AMES SALMONELLA TYPHIMURIUM, Strain/Indicator: TA97, Metabolic Activation: RAT, LIVER, S-9, AROCLOR 1254, Method: PREINCUBATION) “inactive; negative”; under setting [2], “inactive; negative”; (Test System: AMES SALMONELLA TYPHIMURIUM, Strain/Indicator: TA102, Metabolic Activation: NONE, Method: PREINCUBATION) “inactive; negative”; (Test System: AMES SALMONELLA TYPHIMURIUM, Strain/Indicator: TA102, Metabolic Activation: RAT, LIVER, S-9, AROCLOR 1254, Method: PREINCUBATION) “inactive; negative”.
`O=C(CCCN1CCN(c2ccccn2)CC1)c1ccc(F)cc1`: the mutagenic call (Test System: AMES SALMONELLA TYPHIMURIUM, Strain/Indicator: TA98, Metabolic Activation: MOUSE, LIVER, S-9, PHENOBARBITAL, Method: STANDARD PLATE) is “inactive; negative”; the mutagenic call (Test System: AMES SALMONELLA TYPHIMURIUM, Strain/Indicator: TA98, Metabolic Activation: NONE, Method: STANDARD PLATE) is “inactive; negative”; the mutagenic call (Test System: AMES SALMONELLA TYPHIMURIUM, Strain/Indicator: TA98, Metabolic Activation: RAT, LIVER, S-9, AROCLOR 1254, Method: PREINCUBATION) is “inactive; negative”; the mutagenic call (Test System: AMES SALMONELLA TYPHIMURIUM, Strain/Indicator: TA98, Metabolic Activation: RAT, LIVER, S-9, AROCLOR 1254, Method: STANDARD PLATE) was “inactive; negative”; the mutagenic call (Test System: AMES SALMONELLA TYPHIMURIUM, Strain/Indicator: TA100, Metabolic Activation: NONE, Method: STANDARD PLATE) was “inactive; negative”; the mutagenic call (Test System: AMES SALMONELLA TYPHIMURIUM, Strain/Indicator: TA100, Metabolic Activation: RAT, LIVER, S-9, AROCLOR 1254, Method: STANDARD PLATE) was “inactive; negative”. The mutagenic call (Test System: AMES SALMONELLA TYPHIMURIUM, Strain/Indicator: TA1530, Metabolic Activation: NONE, Method: STANDARD PLATE) is “inactive; negative”; the mutagenic call (Test System: AMES SALMONELLA TYPHIMURIUM, Strain/Indicator: TA1530, Metabolic Activation: RAT, LIVER, S-9, AROCLOR 1254, Method: STANDARD PLATE) is “inactive; negative”; the mutagenic call (Test System: AMES SALMONELLA TYPHIMURIUM, Strain/Indicator: TA1535, Metabolic Activation: NONE, Method: STANDARD PLATE) was “inactive; negative”; the mutagenic call (Test System: AMES SALMONELLA TYPHIMURIUM, Strain/Indicator: TA1535, Metabolic Activation: RAT, LIVER, S-9, AROCLOR 1254, Method: STANDARD PLATE) was “inactive; negative”; the mutagenic call under setting [3] was “inactive; negative”; the mutagenic call (Test System: AMES SALMONELLA TYPHIMURIUM, Strain/Indicator: TA1537, Metabolic Activation: RAT, LIVER, S-9, AROCLOR 1254, Method: STANDARD PLATE) was “inactive; negative”. In addition, the mutagenic call runs as follows: (Test System: AMES SALMONELLA TYPHIMURIUM, Strain/Indicator: TA1538, Metabolic Activation: NONE, Method: STANDARD PLATE) “inactive; negative”; (Test System: AMES SALMONELLA TYPHIMURIUM, Strain/Indicator: TA1538, Metabolic Activation: RAT, LIVER, S-9, AROCLOR 1254, Method: STANDARD PLATE) “inactive; negative”.
Regarding `N[C@@H](CCC(=O)NC(CSC(Cl)=C(Cl)Cl)C(=O)NCC(=O)O)C(=O)O` (stereo partly drawn), the mutagenic call under setting [2] is “inactive; negative” and the mutagenic call (Test System: AMES SALMONELLA TYPHIMURIUM, Strain/Indicator: TA100, Metabolic Activation: RAT, KIDNEY, MICROSOMES, Method: PREINCUBATION) was “active; positive”.
With `[Cl][Sn]([Cl])([c]1ccccc1)[c]1ccccc1`, the mutagenic call is “inactive; negative” (Test System: AMES SALMONELLA TYPHIMURIUM, Strain/Indicator: TA98, Metabolic Activation: NONE, Method: SUSPENSION/PLATE) and “inactive; negative” (Test System: AMES SALMONELLA TYPHIMURIUM, Strain/Indicator: TA100, Metabolic Activation: NONE, Method: SUSPENSION/PLATE).
As to `O=C(O)C=C(C(Cl)Cl)C(Cl)Cl`, the mutagenic call is “inactive; negative” under setting [1]; “active; positive” under setting [2]; “inactive; negative” (Test System: AMES SALMONELLA TYPHIMURIUM, Strain/Indicator: TA104, Metabolic Activation: NONE, Method: PREINCUBATION).
Consider `CC(C)(Cl)[N+](=O)[O-]`, for which the mutagenic call was “inactive; negative” (Test System: AMES SALMONELLA TYPHIMURIUM, Strain/Indicator: TA98, Metabolic Activation: HAMSTER, LIVER, S-9, AROCLOR 1254 (30%), Method: PREINCUBATION); “inactive; negative” under setting [1]; “inactive; negative” (Test System: AMES SALMONELLA TYPHIMURIUM, Strain/Indicator: TA98, Metabolic Activation: RAT, LIVER, S-9, AROCLOR 1254 (30%), Method: PREINCUBATION); “inactive; negative” (Test System: AMES SALMONELLA TYPHIMURIUM, Strain/Indicator: TA100, Metabolic Activation: HAMSTER, LIVER, S-9, AROCLOR 1254 (30%), Method: PREINCUBATION); “active; positive” under setting [2]; “inactive; negative” (Test System: AMES SALMONELLA TYPHIMURIUM, Strain/Indicator: TA100, Metabolic Activation: RAT, LIVER, S-9, AROCLOR 1254 (30%), Method: PREINCUBATION). Besides, the mutagenic call is, setting by setting: (Test System: AMES SALMONELLA TYPHIMURIUM, Strain/Indicator: TA1535, Metabolic Activation: HAMSTER, LIVER, S-9, AROCLOR 1254 (30%), Method: PREINCUBATION) “inactive; negative”; (Test System: AMES SALMONELLA TYPHIMURIUM, Strain/Indicator: TA1535, Metabolic Activation: NONE, Method: PREINCUBATION) “inactive; negative”; (Test System: AMES SALMONELLA TYPHIMURIUM, Strain/Indicator: TA1535, Metabolic Activation: RAT, LIVER, S-9, AROCLOR 1254 (30%), Method: PREINCUBATION) “inactive; negative”; (Test System: AMES SALMONELLA TYPHIMURIUM, Strain/Indicator: TA1538, Metabolic Activation: HAMSTER, LIVER, S-9, AROCLOR 1254 (30%), Method: PREINCUBATION) “inactive; negative”; (Test System: AMES SALMONELLA TYPHIMURIUM, Strain/Indicator: TA1538, Metabolic Activation: NONE, Method: PREINCUBATION) “inactive; negative”; (Test System: AMES SALMONELLA TYPHIMURIUM, Strain/Indicator: TA1538, Metabolic Activation: RAT, LIVER, S-9, AROCLOR 1254 (30%), Method: PREINCUBATION) “inactive; negative”.
Take `CN(C)CCNC(=O)c1cccc2c1C(=O)c1ccccc1C2=O`: the mutagenic call under setting [3] was “active; positive”.
On the same count and under the same terms, for `CN(C)CCNC(=O)c1cccc2[nH]c(-c3ccccc3)nc12` the value was “active; positive”.
